Test system: raphespinal fibers and corticospinal tract axons
Test: Anatomical sprouting of raphespinal and corticospinal tract axons after spinal cord injury
Type: in vivo, rat
Conditions: after dorsal hemisection
Protocol: To test the effects of inosine on spinal cord injury, the dorsal half of the spinal cord in rats was transected, severing the descending CST and other pathways. CST loss severely disrupted fine, skilled behaviors. Inosine was then administered either intra-cerebroventricularly (50 mM, 0.25 μl/hour) or intravenously (260 mM, 10 μl/hour) for 4 weeks. […] Complete transection of the corticospinal tract was verified histologically. The effectiveness of inosine was clinically relevant, since it avoids the risk of intracerebral infection.

## OC[C@H]1O[C@@H](n2cnc3c(O)ncnc32)[C@H](O)[C@@H]1O [inosine]
  long-distance corticospinal tract regeneration: modest effects
  sprouting of corticospinal tract axons rostral to the injury site: enhanced the sprouting
  sprouting of raphespinal fibers distal to the injury site: enhanced the sprouting

— patent publication US8912144B2, “Method for treating stroke via administration of NEP1-40 and inosine” (Children's Medical Center Corporation, priority 2003, dated 2014)
